The text below walks through data of ChEMBL document CHEMBL3132769, “Fragment growing to retain or alter the selectivity of anchored kinase hinge-binding fragments” (Medchemcomm, 2014).

In experiment [1] the target is Tyrosine-protein kinase ABL2 (Homo sapiens) (UniProt P42684). The experiment in a line: Inhibition of human truncated Arg expressed in baculovirus assessed as substrate phosphorylation using fluorescence-labelled peptides as substrate at 0.1 uM after 90 mins by microfluidic peptide phosphorylation assay.
In experiment [2] the target is Tyrosine-protein kinase Lck (Homo sapiens) (UniProt P06239). The experiment in a line: Inhibition of human full length LCK expressed in baculovirus assessed as substrate phosphorylation using fluorescence-labelled peptides as substrate at 420 uM after 90 mins by microfluidic peptide phosphorylation assay.
Experiment [3] deals with Tyrosine-protein kinase ABL1 (Homo sapiens), P00519 [Q252H]. The experiment in a line: Inhibition of human truncated ABL Q252H mutant expressed in baculovirus assessed as substrate phosphorylation using fluorescence-labelled peptides as substrate at 420 uM after 90 mins by microfluidic peptide phosphorylation assay.
The target of experiment [4] is RAC-alpha serine/threonine-protein kinase (Homo sapiens) (UniProt P31749). The experiment in a line: Inhibition of human AKT1 catalytic domain expressed in baculovirus assessed as substrate phosphorylation using fluorescence-labelled peptides as substrate at 420 uM after 90 mins by microfluidic peptide phosphorylation assay.
Experiment [5] has as its target T1, Serine/threonine-protein kinase Sgk1 (Homo sapiens) (UniProt O00141).
T1 sequence (whole entry): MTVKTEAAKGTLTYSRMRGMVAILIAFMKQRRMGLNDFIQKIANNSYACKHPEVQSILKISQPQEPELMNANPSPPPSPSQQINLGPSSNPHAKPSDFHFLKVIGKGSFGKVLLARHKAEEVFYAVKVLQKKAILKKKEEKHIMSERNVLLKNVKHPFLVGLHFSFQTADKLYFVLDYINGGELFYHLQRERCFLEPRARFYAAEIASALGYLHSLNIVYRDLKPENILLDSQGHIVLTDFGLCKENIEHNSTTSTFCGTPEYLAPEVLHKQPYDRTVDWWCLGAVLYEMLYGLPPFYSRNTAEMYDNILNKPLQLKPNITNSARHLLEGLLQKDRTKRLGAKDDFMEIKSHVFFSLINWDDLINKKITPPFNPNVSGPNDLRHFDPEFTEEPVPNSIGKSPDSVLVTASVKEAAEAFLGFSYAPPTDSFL
As to the kind of experiment: Inhibition of human truncated SGK1 expressed in baculovirus assessed as substrate phosphorylation using fluorescence-labelled peptides as substrate at 420 uM after 90 mins by microfluidic peptide phosphorylation assay.

Experiment [6] addresses T2, Serine/threonine-protein kinase Nek2 (Homo sapiens) (UniProt P51955).
T2 sequence (whole entry): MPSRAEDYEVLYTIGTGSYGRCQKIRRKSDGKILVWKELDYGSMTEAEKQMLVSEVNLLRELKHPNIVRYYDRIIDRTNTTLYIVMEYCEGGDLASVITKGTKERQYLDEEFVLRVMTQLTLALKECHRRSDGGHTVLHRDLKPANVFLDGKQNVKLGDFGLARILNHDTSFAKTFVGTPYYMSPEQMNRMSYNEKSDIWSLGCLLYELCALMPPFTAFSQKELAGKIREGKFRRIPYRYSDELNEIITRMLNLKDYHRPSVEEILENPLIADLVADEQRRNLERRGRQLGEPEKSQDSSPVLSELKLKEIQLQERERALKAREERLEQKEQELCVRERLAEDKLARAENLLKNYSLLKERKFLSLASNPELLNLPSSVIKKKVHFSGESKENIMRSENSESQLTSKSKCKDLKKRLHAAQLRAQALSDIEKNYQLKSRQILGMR
The experiment in a line: Inhibition of human full length NEK2 expressed in baculovirus assessed as substrate phosphorylation using fluorescence-labelled peptides as substrate at 95 uM after 90 mins by microfluidic peptide phosphorylation assay.

The target of experiment [7] is Rho-associated protein kinase 2 (Homo sapiens) (UniProt O75116). The experiment in a line: Inhibition of human ROCK2 catalytic domain expressed in baculovirus assessed as substrate phosphorylation using fluorescence-labelled peptides as substrate at 95 uM after 90 mins by microfluidic peptide phosphorylation assay.
The target of experiment [8] is T3, Calcium/calmodulin-dependent protein kinase type IV (Homo sapiens) (UniProt Q16566).
T3 sequence (whole entry): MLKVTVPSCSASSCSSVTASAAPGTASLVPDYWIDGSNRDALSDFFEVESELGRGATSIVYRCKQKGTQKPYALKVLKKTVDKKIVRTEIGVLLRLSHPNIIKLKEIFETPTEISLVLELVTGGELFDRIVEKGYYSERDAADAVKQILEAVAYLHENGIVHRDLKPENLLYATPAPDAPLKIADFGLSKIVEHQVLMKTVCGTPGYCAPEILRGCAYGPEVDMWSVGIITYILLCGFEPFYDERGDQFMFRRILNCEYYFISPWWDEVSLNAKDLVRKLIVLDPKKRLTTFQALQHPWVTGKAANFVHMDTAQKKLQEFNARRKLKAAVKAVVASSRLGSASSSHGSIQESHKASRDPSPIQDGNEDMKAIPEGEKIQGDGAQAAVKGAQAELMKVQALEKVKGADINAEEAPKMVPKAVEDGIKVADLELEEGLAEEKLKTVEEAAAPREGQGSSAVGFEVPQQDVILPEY
The experiment in a line: Inhibition of human full length CAMK4 expressed in baculovirus assessed as substrate phosphorylation using fluorescence-labelled peptides as substrate at 9 uM after 90 mins by microfluidic peptide phosphorylation assay.

In experiment [9] the target is Tyrosine-protein kinase BTK (Homo sapiens) (UniProt Q06187). The experiment in a line: Inhibition of human full length BTK expressed in baculovirus assessed as substrate phosphorylation using fluorescence-labelled peptides as substrate at 9 uM after 90 mins by microfluidic peptide phosphorylation assay.
Experiment [10] addresses Ribosomal protein S6 kinase alpha-5 (Homo sapiens) (UniProt O75582). As to the kind of experiment: Inhibition of human full length MSK1 expressed in baculovirus assessed as substrate phosphorylation using fluorescence-labelled peptides as substrate at 9 uM after 90 mins by microfluidic peptide phosphorylation assay.
In experiment [11] the target is Serine/threonine-protein kinase MARK2 (Homo sapiens) (UniProt Q7KZI7). As to the kind of experiment: Inhibition of human full length MARK2 expressed in baculovirus assessed as substrate phosphorylation using fluorescence-labelled peptides as substrate at 1000 uM after 90 mins by microfluidic peptide phosphorylation assay.
The target in experiment [12] is Tyrosine-protein kinase ABL2 (Homo sapiens) (UniProt P42684). As to the kind of experiment: Inhibition of human truncated Arg expressed in baculovirus assessed as substrate phosphorylation using fluorescence-labelled peptides as substrate at 1000 uM after 90 mins by microfluidic peptide phosphorylation assay.
Experiment [13] deals with T3, Calcium/calmodulin-dependent protein kinase type IV (Homo sapiens). As to the kind of experiment: Inhibition of human full length CAMK4 expressed in baculovirus assessed as substrate phosphorylation using fluorescence-labelled peptides as substrate at 1000 uM after 90 mins by microfluidic peptide phosphorylation assay.
In experiment [14] the target is RAF proto-oncogene serine/threonine-protein kinase (Homo sapiens) (UniProt P04049). The experiment in a line: Inhibition of human truncated c-Raf expressed in baculovirus assessed as substrate phosphorylation using fluorescence-labelled peptides as substrate at 1000 uM after 90 mins by microfluidic peptide phosphorylation assay.
Experiment [15] shares this target. As to the kind of experiment: Inhibition of human truncated c-Raf expressed in baculovirus assessed as substrate phosphorylation using fluorescence-labelled peptides as substrate at 70 uM after 90 mins by microfluidic peptide phosphorylation assay.
Experiment [16] concerns the target Calcium/calmodulin-dependent protein kinase type II subunit gamma (Homo sapiens) (UniProt Q13555). As to the kind of experiment: Inhibition of human CAMK2 gamma catalytic domain expressed in baculovirus assessed as substrate phosphorylation using fluorescence-labelled peptides as substrate at 70 uM after 90 mins by microfluidic peptide phosphorylation assay.

Sequence of RAF proto-oncogene serine/threonine-protein kinase (Homo sapiens) (P04049 whole entry, the tested form may be a part): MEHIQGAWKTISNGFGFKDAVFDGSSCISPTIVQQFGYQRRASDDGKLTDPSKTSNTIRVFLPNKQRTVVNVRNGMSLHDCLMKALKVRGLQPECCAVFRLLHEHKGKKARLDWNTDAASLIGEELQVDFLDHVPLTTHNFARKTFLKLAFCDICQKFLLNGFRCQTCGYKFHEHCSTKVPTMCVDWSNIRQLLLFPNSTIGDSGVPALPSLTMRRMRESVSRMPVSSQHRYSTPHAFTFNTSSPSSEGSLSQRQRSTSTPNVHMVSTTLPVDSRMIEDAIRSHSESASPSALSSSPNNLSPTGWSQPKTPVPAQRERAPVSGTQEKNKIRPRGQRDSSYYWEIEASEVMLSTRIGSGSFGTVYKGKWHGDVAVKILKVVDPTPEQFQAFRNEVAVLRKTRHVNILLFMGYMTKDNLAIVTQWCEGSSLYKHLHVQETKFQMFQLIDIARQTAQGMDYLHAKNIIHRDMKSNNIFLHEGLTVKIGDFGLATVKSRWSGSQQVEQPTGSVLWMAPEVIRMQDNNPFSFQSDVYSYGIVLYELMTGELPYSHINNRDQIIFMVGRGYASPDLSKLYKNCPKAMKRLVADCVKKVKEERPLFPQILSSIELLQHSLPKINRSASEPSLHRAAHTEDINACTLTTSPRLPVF
Sequence of Tyrosine-protein kinase ABL2 (Homo sapiens) (P42684 whole entry, the tested form may be a part): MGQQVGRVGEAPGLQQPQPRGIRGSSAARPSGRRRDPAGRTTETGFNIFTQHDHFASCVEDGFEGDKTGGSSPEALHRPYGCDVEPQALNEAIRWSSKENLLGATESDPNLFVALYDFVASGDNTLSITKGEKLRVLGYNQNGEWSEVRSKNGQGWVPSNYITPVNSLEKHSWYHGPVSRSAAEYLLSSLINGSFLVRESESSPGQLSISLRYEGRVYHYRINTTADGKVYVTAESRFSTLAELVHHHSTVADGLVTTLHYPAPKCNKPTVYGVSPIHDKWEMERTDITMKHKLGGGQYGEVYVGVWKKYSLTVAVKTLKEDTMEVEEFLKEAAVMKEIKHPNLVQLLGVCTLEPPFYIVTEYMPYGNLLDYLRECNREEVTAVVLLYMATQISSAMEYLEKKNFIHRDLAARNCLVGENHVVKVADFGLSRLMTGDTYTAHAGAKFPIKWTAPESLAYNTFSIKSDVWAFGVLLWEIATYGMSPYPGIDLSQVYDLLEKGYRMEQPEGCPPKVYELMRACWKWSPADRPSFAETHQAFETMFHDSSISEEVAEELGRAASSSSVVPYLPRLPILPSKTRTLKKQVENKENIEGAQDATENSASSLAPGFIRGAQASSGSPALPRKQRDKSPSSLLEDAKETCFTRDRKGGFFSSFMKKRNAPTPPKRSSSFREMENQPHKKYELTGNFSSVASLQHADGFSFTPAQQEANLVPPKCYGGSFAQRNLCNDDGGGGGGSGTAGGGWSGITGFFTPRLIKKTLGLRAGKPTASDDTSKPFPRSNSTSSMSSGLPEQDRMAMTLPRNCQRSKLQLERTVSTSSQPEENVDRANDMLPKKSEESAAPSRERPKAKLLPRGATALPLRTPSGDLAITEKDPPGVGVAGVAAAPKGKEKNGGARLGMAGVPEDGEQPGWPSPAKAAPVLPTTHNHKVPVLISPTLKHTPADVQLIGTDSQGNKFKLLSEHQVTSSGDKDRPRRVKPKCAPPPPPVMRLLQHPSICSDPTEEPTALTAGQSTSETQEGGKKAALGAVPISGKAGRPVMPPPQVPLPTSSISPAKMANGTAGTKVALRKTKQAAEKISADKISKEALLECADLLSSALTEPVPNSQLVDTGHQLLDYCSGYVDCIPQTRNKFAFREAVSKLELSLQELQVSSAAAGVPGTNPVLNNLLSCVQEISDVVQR
Sequence of Ribosomal protein S6 kinase alpha-5 (Homo sapiens) (O75582 whole entry, looked up): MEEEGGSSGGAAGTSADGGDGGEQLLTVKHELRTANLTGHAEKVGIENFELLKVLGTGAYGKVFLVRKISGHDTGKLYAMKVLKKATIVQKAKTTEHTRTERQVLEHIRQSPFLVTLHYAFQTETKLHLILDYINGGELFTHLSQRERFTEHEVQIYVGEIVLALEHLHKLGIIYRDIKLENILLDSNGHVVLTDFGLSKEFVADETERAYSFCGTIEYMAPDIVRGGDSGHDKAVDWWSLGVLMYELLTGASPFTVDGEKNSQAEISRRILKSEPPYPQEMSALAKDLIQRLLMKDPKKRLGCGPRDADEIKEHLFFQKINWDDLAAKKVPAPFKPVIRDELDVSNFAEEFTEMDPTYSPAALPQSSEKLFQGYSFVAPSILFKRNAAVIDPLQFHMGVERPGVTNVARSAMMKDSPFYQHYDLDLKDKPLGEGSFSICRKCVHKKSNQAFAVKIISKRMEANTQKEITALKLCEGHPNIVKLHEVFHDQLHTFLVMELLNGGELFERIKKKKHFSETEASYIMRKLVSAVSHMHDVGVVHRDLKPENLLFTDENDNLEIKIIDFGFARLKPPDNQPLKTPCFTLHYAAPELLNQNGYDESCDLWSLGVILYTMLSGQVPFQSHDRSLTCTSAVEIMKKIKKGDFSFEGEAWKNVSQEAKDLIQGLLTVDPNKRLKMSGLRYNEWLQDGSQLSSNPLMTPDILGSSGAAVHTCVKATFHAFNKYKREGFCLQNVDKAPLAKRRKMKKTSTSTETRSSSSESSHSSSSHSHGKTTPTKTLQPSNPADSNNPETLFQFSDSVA
Sequence of Calcium/calmodulin-dependent protein kinase type II subunit gamma (Homo sapiens) (Q13555 whole entry, the tested form may be a part): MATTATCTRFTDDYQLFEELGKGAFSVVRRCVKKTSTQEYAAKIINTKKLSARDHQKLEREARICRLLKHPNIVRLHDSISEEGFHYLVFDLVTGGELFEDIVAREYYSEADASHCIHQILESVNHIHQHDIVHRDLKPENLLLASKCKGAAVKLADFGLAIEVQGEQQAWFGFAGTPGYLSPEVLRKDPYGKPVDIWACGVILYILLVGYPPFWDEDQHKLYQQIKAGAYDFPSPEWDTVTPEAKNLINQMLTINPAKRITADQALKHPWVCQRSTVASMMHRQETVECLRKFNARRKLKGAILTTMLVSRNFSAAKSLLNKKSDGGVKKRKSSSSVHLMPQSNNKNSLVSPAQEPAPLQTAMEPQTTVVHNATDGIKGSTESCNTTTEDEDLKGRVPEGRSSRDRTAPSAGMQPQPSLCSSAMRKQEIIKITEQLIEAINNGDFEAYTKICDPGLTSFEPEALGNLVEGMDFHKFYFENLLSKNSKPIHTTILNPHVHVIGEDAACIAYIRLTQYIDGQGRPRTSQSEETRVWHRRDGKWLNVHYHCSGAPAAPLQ
Sequence of RAC-alpha serine/threonine-protein kinase (Homo sapiens) (P31749 whole entry, the tested form may be a part): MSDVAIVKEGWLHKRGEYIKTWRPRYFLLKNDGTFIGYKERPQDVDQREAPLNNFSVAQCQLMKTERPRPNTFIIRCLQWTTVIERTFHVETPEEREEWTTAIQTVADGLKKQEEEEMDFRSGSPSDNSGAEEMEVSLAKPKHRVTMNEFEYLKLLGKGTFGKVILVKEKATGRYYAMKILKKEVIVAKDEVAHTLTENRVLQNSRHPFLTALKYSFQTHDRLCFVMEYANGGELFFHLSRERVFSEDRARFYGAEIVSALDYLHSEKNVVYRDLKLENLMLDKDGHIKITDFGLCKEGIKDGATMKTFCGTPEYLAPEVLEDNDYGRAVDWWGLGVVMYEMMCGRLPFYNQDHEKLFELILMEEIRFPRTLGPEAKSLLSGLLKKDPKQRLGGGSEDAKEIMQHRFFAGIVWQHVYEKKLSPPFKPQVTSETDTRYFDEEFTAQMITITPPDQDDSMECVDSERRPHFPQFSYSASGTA
Sequence of Serine/threonine-protein kinase MARK2 (Homo sapiens) (Q7KZI7 whole entry, the tested form may be a part): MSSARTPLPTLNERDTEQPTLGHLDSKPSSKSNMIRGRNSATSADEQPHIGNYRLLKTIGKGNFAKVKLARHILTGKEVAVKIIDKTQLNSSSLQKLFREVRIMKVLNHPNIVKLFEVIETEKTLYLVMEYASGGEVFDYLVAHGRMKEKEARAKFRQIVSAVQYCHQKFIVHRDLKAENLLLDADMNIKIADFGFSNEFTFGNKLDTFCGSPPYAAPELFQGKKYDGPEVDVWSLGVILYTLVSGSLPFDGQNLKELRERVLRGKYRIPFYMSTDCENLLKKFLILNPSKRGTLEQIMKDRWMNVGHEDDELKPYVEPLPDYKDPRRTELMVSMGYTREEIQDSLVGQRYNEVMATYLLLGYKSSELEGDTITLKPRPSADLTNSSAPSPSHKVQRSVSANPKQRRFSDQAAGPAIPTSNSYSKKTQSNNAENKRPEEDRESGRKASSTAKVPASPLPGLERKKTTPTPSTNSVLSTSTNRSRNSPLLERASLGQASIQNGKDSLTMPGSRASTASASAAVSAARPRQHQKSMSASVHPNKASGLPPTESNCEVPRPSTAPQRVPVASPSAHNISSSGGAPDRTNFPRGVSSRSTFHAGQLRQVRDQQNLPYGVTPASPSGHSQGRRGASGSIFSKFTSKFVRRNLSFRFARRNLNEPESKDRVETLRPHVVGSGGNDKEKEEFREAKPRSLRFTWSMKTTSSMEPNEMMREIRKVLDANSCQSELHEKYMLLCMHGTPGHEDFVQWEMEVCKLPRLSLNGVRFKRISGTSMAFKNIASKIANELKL
Sequence of Tyrosine-protein kinase Lck (Homo sapiens) (P06239 2-509 limits assumed): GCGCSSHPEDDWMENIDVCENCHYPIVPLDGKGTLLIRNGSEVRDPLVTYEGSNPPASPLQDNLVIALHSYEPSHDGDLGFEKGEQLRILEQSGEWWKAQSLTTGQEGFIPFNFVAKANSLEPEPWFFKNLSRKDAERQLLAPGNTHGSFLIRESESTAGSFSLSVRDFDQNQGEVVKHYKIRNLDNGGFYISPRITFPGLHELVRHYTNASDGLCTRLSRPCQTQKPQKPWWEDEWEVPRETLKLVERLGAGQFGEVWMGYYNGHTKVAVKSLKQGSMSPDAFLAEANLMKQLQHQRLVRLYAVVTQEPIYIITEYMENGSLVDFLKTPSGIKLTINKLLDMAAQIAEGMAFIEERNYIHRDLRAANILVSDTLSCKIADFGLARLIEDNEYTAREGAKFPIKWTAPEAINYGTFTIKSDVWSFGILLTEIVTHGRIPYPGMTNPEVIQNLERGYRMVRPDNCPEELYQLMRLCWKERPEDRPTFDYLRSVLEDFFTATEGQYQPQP

Broadly, the inhibition is the drop in the measured response relative to a control, in per cent. `C[C@H](CN(C)C)Oc1nc(Nc2cc3cccc(Cl)c3cn2)cnc1C#N`: the inhibition in [1] came to 1.5%.

Consider `c1nc(N2CCOCC2)c2nc[nH]c2n1`, for which the inhibition amounted to 67.5% in experiment [2], 64% in experiment [3], 61.5% in experiment [4] and 83.5% in experiment [5].

In the case of `NCCc1ccc(-c2ncnc3[nH]cnc23)cc1`, the figures for the inhibition in experiment [6] and in experiment [7] were 0% and 93.5%, respectively.

Turning to `NCC1CN(c2ncnc3[nH]c4cnccc4c23)CCO1` (stereo unspecified), the inhibition in experiment [8] stood at 31.5%; in [9], 11%; in experiment [10], 60%.

For `c1cnc2[nH]ccc2c1`, the inhibition came out at 75% in [11], 40% in [12], 52% in experiment [13] and 20% in experiment [14].

For `CNCc1ccc(-c2ncnc3[nH]cnc23)cc1`, the results for the inhibition in [15] and in [16] were 39.5% and 16%, respectively.
